The values that follow come from publication doi:10.1101/2024.08.19.608619, “Discovery of potent SARS-CoV-2 nsp3 macrodomain inhibitors uncovers lack of translation to cellular antiviral response” (bioRxiv, 2024).

Read-outs that look alike come from different tables or passages of the source.

Common to all, as to assay: biochemical
Set-up in all cases: In vitro kinase panel profiling, per cent remaining kinase activity at 10 uM

Test [1] has as its target T1, PI3 Kinase (p120γ)(h) (Homo sapiens, UniProt P48736).
T1 construct: gene PIK3CG
Particulars: atp_concentration=100, read-out: % of control remaining. The source says:
(§1) We derisk potential for off-target activity by profiling the compound in a CEREP panel, a standard secondary pharmacology assessment, as well as a kinase panel to derisk a potential hinge-binding motif in our leads, and a PARP panel to derisk activity against human […]. Reassuringly, the compounds are selective, with the only off-targets being moderate human CHRM2 and KOR receptors activity associated with ASAP-0011198.

In test [2] the target is T2, PRAK(h) (Homo sapiens, UniProt Q8IW41).
T2 construct: gene MAPKAPK5
T2 sequence (Q8IW41 1-473): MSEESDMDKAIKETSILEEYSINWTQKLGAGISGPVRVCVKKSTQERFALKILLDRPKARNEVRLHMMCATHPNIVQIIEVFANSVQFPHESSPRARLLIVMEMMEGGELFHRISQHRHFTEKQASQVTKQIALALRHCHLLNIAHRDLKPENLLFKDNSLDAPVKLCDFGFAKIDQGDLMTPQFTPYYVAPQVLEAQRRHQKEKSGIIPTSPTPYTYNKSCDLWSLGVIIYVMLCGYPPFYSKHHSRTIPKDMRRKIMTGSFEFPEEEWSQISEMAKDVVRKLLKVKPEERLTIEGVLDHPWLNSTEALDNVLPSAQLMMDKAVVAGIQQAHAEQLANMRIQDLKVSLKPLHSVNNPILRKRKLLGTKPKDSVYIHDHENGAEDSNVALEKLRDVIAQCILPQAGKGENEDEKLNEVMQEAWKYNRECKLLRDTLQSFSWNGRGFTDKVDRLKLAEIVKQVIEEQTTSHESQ
The conditions noted are these: atp_concentration=15, read-out: % of control remaining.
Description: as §1

The target in test [3] is Lyn(h) (Homo sapiens, UniProt P07948). The conditions noted are these: atp_concentration=70, read-out: % of control remaining.
Description: as §1

Test [4] has as its target T3, LOK(h) (Homo sapiens, UniProt O94804).
T3 construct: gene STK10
The conditions noted are these: atp_concentration=120, read-out: % of control remaining.
Description: as §1

Test [5] deals with T4, EphB4(h) (Homo sapiens, UniProt P54760).
T4 sequence (P54760 1-987): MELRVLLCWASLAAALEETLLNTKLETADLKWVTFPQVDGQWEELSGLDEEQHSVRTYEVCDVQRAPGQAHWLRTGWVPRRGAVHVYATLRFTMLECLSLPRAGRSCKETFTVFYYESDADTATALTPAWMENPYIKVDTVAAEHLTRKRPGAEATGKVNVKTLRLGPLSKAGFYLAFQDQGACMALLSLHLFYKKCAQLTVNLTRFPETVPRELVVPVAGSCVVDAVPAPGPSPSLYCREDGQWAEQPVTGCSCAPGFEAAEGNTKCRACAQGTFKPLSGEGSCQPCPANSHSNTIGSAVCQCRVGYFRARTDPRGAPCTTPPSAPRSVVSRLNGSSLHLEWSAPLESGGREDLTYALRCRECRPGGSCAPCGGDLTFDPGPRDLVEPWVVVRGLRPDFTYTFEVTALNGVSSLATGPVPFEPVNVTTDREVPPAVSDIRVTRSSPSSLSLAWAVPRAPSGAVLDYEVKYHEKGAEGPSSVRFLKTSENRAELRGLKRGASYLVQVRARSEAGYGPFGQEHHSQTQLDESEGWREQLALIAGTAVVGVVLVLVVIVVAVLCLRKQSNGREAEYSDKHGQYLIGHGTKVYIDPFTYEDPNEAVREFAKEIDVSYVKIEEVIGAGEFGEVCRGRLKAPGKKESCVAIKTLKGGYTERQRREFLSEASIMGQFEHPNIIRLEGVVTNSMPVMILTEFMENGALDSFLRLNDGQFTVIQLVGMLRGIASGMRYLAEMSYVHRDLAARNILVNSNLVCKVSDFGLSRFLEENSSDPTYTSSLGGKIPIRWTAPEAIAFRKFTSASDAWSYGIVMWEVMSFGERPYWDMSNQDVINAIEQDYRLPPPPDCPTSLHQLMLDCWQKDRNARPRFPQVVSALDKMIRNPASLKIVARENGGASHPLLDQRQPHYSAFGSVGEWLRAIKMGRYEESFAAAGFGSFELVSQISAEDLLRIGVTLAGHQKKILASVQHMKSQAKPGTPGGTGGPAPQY
The conditions noted are these: atp_concentration=10, read-out: % of control remaining.
Description: as §1

Test [6] deals with JAK2(h) (Homo sapiens, UniProt O60674). The conditions noted are these: atp_concentration=45, read-out: % of control remaining.
Description: as §1

Test [7] addresses CDK9/cyclin T1(h) (Homo sapiens, UniProt P50750). The conditions noted are these: atp_concentration=45, read-out: % of control remaining.
Description: as §1

T3 sequence (O94804 whole entry): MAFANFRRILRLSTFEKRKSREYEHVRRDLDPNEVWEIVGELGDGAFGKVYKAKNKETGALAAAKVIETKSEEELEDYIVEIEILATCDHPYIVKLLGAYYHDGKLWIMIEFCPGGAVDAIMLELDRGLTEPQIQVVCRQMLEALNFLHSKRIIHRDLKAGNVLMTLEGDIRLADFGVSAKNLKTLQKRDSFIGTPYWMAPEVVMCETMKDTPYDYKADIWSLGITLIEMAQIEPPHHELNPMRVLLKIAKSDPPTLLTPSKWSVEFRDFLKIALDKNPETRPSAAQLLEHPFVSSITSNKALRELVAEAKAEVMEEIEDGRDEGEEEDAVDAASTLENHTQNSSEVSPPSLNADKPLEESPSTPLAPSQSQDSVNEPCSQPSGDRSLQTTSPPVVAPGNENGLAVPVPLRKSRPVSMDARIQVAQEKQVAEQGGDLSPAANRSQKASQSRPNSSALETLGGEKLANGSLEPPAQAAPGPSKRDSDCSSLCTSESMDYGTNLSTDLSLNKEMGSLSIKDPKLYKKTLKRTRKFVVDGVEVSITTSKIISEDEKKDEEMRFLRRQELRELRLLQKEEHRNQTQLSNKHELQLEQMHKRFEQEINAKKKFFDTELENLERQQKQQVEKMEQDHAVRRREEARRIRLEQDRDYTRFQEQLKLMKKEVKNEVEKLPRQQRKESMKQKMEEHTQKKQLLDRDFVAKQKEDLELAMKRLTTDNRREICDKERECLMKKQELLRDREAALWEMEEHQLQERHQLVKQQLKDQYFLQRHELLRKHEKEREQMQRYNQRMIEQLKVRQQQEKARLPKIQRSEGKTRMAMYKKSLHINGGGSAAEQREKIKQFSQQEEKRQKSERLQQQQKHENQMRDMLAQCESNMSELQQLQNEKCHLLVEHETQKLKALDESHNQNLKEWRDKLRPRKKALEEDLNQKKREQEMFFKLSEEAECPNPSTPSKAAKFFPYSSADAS
Chain of JAK2(h) (O60674 whole entry): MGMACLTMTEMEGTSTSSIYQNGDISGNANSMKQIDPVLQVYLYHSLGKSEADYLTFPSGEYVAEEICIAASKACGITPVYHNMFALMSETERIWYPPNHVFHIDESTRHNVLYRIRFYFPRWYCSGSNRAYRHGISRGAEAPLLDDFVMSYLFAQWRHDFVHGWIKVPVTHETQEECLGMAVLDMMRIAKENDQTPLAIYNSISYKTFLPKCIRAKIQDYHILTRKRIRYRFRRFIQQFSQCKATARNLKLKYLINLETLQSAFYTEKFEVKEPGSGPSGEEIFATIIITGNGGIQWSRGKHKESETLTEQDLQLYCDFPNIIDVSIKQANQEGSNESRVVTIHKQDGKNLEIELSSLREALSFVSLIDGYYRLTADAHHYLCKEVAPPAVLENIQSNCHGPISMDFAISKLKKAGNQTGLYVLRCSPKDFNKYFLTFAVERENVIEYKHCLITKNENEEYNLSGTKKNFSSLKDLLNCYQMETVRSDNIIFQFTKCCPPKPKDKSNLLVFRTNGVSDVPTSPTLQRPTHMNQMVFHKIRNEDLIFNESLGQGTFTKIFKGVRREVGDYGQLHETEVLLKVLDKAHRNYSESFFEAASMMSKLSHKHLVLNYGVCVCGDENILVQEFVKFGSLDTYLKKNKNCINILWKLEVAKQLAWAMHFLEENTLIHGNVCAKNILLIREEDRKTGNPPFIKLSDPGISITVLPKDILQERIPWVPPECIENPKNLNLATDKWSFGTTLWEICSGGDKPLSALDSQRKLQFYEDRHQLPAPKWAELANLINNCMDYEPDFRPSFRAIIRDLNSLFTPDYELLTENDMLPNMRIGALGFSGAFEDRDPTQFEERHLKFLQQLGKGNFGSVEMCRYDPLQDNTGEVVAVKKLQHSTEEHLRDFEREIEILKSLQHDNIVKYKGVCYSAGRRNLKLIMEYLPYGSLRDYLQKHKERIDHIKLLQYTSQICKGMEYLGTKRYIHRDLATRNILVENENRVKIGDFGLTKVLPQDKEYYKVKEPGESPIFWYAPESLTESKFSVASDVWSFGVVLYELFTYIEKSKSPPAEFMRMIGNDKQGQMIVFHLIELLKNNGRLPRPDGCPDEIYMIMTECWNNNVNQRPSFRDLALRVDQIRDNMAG
T1 sequence (P48736 whole entry): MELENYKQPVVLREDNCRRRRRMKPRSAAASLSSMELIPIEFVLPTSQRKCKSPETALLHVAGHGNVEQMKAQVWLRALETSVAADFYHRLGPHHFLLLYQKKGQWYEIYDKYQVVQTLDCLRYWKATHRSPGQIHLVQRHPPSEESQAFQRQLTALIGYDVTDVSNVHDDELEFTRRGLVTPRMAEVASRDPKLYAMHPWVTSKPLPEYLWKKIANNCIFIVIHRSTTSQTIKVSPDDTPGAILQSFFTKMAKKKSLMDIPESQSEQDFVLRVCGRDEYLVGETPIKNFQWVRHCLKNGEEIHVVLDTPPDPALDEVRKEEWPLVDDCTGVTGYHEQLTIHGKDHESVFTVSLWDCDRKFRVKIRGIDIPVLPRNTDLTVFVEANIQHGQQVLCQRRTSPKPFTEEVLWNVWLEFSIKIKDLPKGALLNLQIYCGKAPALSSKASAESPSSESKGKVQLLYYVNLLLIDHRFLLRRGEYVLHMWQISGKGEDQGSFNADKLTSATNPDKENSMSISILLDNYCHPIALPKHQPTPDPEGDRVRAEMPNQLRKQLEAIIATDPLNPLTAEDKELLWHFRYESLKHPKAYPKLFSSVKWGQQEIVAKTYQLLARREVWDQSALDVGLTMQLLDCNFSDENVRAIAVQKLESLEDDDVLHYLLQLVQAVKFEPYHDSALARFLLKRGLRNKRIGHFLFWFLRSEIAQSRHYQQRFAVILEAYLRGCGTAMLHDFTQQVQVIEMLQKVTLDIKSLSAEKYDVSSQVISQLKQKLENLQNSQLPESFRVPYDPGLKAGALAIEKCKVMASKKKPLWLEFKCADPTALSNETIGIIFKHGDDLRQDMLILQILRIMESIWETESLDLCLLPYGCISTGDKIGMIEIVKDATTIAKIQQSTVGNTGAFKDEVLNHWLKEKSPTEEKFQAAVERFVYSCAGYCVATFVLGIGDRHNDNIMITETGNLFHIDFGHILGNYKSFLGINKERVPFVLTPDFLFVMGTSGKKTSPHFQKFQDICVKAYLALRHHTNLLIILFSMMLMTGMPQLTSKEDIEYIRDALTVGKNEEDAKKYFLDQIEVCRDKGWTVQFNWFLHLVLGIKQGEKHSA
Chain of CDK9/cyclin T1(h) (P50750 whole entry): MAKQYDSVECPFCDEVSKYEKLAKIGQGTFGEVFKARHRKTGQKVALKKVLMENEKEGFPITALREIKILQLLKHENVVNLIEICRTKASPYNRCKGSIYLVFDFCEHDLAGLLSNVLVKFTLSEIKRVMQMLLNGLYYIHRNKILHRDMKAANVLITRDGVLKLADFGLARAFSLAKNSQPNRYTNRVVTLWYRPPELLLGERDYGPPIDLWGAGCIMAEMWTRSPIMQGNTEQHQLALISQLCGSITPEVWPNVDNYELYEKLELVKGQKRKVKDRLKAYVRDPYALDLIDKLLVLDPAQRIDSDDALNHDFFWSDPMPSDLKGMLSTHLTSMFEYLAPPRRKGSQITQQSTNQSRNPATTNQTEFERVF
Chain of CDK9/cyclin T1(h) (O60563 whole entry partner): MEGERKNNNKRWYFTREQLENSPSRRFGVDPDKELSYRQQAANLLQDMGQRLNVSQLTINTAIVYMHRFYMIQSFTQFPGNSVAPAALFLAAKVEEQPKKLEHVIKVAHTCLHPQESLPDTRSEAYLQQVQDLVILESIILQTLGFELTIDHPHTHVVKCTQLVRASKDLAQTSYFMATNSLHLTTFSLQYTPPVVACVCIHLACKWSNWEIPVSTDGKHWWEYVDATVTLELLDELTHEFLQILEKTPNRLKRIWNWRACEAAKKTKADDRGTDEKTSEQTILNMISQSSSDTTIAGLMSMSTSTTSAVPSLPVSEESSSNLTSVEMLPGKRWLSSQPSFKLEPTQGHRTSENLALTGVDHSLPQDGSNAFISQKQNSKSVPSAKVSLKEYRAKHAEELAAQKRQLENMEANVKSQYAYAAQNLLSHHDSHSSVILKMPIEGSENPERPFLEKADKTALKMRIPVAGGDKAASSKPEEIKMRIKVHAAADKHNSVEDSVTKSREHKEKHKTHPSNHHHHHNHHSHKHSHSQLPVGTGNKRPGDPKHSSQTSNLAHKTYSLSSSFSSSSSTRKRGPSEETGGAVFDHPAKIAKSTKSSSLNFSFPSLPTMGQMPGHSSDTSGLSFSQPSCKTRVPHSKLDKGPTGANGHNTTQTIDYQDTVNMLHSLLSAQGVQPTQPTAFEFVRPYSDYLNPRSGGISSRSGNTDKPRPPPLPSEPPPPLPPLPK
Chain of Lyn(h) (P07948 whole entry): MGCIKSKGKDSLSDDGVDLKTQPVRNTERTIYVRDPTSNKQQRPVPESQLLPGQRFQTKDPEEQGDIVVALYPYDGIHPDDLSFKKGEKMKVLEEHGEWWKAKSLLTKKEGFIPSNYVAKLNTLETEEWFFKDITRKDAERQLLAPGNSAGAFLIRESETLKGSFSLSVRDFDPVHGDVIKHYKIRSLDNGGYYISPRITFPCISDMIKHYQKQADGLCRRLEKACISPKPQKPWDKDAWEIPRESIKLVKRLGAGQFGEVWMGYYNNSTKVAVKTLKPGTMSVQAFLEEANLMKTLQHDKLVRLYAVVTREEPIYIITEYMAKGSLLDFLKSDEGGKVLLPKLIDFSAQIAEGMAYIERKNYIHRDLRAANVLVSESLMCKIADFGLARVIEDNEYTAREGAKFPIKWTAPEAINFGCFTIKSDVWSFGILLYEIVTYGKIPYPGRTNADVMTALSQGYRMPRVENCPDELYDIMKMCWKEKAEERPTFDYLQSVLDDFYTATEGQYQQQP

For the compound `CC(C)C(Nc1ncnc2[nH]c(C(=O)NC3CCN(C)C3)cc12)c1ccc2c(c1)S(=O)(=O)CCC2` (centres unmarked) [ASAP-0011198], the remaining activity at 10 µM in test [1] (batch_name=ASAP-0011198-002) is 97%; in test [2] (batch_name=ASAP-0011198-002), 111%; in test [3] (batch_name=ASAP-0011198-002) it was 107%; in test [4] (batch_name=ASAP-0011198-002), 99%; in test [5] (batch_name=ASAP-0011198-002), 86%; in test [6] (batch_name=ASAP-0011198-002) it was 106%. Besides, the remaining activity at 10 µM in test [7] (batch_name=ASAP-0011198-002) came to 108%.
Regarding `Cn1ncc(-c2cc3c(N[C@@H](c4ccc5c(n4)OCCO5)C(C)(C)C)ncnc3[nH]2)c1C#N` [ASAP-0011221], the remaining activity at 10 µM was determined as 88% in test [1] (batch_name=ASAP-0011221-002); 86% in test [2] (batch_name=ASAP-0011221-002); 101% in test [3] (batch_name=ASAP-0011221-002); 122% in test [4] (batch_name=ASAP-0011221-002); 115% in test [5] (batch_name=ASAP-0011221-002); 140% in test [6] (batch_name=ASAP-0011221-002). In test [7] (batch_name=ASAP-0011221-002), the remaining activity at 10 µM was determined as 130%.
In the case of `Cc1nn(C)cc1-c1cc2c(NC(c3ccc4c(c3)S(=O)(=O)CCC4)C(C)C)ncnc2[nH]1` (centres unmarked) [ASAP-0011446], the remaining activity at 10 µM came to 96% in test [1] (batch_name=ASAP-0011446-002); 82% in test [2] (batch_name=ASAP-0011446-002); 48% in test [3] (batch_name=ASAP-0011446-002); 93% in test [4] (batch_name=ASAP-0011446-002); 98% in test [5] (batch_name=ASAP-0011446-002); 111% in test [6] (batch_name=ASAP-0011446-002). In addition, in test [7] (batch_name=ASAP-0011446-002), the remaining activity at 10 µM is 57%.
Consider `C[C@H](C(=O)O)[C@@H](NC(=O)c1ncnc2[nH]ccc12)c1ccc(Br)cc1` [ASAP-0014722], for which the remaining activity at 10 µM in test [1] (batch_name=ASAP-0014722-002) came to 97%; in test [2] (batch_name=ASAP-0014722-002) it was 88%; in test [3] (batch_name=ASAP-0014722-002) it was 94%; in test [4] (batch_name=ASAP-0014722-002), 97%; in test [5] (batch_name=ASAP-0014722-002) it was 105%; in test [6] (batch_name=ASAP-0014722-002) it was 99%. Moreover, the remaining activity at 10 µM in test [7] (batch_name=ASAP-0014722-002) turned out to be 103%.
For the compound `COc1ccc([C@H](Cc2nnn[nH]2)NC(=O)c2ncnc3[nH]ccc23)cc1` [ASAP-0015381], the remaining activity at 10 µM in test [1] (batch_name=ASAP-0015381-001) was 88%; in test [2] (batch_name=ASAP-0015381-001) it was 109%; in test [3] (batch_name=ASAP-0015381-001), 108%; in test [4] (batch_name=ASAP-0015381-001) it was 102%; in test [5] (batch_name=ASAP-0015381-001), 106%; in test [6] (batch_name=ASAP-0015381-001), 116%. In addition, the remaining activity at 10 µM in test [7] (batch_name=ASAP-0015381-001) came to 109%.
